Assay results taken from patent publication US6156700A, “3-(1,2-Benzisothiazol- and isoxazol-5-yl)-2,4(1H,3H)-pyrimidinedione or thione and 3-(1,2-benzisothiazol- and isoxazol-5-yl)-4(3H)-pyrimidinone or thione herbicidal agents” (American Cyanmid Company, priority 1998, dated 2000).

Key:
[1] = tested on: CYPSE Flatsedge; test: Preemergence weed control, flooded paddy (Table III); type: in vivo, Cyperus serotinus; set-up: scale not given here
Experimental: Preemergence herbicidal activity under flooded paddy conditions is determined as follows: plant seeds or propagating organs are planted in the top 0.5 cm of silt loam soil in 32 oz. plastic containers with a diameter of 10.5 cm and no drainage holes. Water is added to these containers and maintained at 1.5 to 3 cm above the soil surface for the duration of the experiment. The test compounds are applied as aqueous/acetone mixtures 50/50 v/v pipetted directly into the flood water to give the equivalent of about 0.0313 to 0.500 kg/ha of active ingredient. The treated containers are placed on greenhouse benches and cared for in accordance with conventional greenhouse procedures. Three to four weeks after treatment, the test is terminated and each container is examined and herbicidal effect rated according to the rating system provided in Example 185. The compounds evaluated are reported by compound number given in Example 185.

[2] = tested on: Lambsquarters, Common, Chenopodium album; test: Preemergence herbicidal evaluation, CHEAL; type: in vivo, L.; conditions: 0.2500 kg/ha
How it was run: (§1)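 Compound is applied preemergence: seeds are sown in potting soil, and cups are sprayed with an aqueous acetone solution giving roughly 0.0156 to 0.500 kg/ha. After 4–5 weeks in the greenhouse, each cup is scored 0–9 by eye against a control.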

[3] = tested on: Galium, Galium aparine; test: Preemergence herbicidal evaluation, GALAP; type: in vivo; conditions: 0.2500 kg/ha
How it was run: as §1

[4] = tested on: Rice, Tebonnet, Oryza sativa; test: Postemergence herbicidal evaluation, ORYSAT; type: in vivo, (L.) Tebonnet
How it was run: (§2)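 Scoring four to five weeks after treatment used a 0–9 scale based on plant appearance versus control. Treatment: 40 psi spray of about 0.0157–0.500 kg/ha onto two-week seedlings, compound dispersed in acetone/water 50/50 with 0.5% TWEEN 20.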

[5] = tested on: Barnyardgrass, Echinochloa crus-galli; test: Preemergence herbicidal evaluation, ECHCG; type: in vivo, (L.) Beau; conditions: 0.2500 kg/ha
How it was run: as §1

[6] = tested on: Wheat, Winter, cv Riband, Triticum aestivum; test: Preemergence herbicidal evaluation, TRZAWR; type: in vivo; conditions: 0.2500 kg/ha
How it was run: as §1

[7] = tested on: Soybean, Glycine max; test: Postemergence herbicidal evaluation, GLXMA; type: in vivo, (L.) Merr.; conditions: 0.2500 kg/ha
Experimental: In the tests, seedling plants are grown in jiffy flats for about two weeks. The test compounds are dispersed in 50/50 acetone/water mixtures containing 0.5% TWEEN®20, a polyoxyethylene sorbitan monolaurate surfactant of Atlas Chemical Industries, in sufficient quantities to provide the equivalent of about 0.0157 kg to 0.500 kg per hectare of active compound when applied to the plants through a spray nozzle operating at 40 psi for a predetermined time. After spraying, the plants are placed on greenhouse benches and are cared for in accordance with conventional greenhouse procedures. From four to five weeks after treatment, the seedling plants are examined and rated according to the rating system set forth below. Where more than one test is involved for a given compound, the data are averaged.
Results of herbicide evaluation are expressed on a rating scale (0-9). The scale is based upon a visual observation of plant stand, vigor, malformation, size, chlorosis and overall plant appearance as compared with a control.

[8] = tested on: CYPSE Flatsedge; test: Postemergence weed control, flooded paddy (Table IV); type: in vivo, Cyperus serotinus; set-up: scale not given here
How it was run: (§3)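 Rating scale scores taken 3–4 weeks post-treatment; compounds dosed in flood water (~0.0313–0.500 kg/ha) onto weeds 3–5 cm tall and 1.5–2.5 leaf rice under 1.5–3 cm standing water.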

[9] = tested on: Soybean, Williams, Glycine max; test: Postemergence herbicidal evaluation, GLXMAW; type: in vivo, (L.) Merr. cv Williams
How it was run: as §2

[10] = tested on: Morningglory, Ivyleaf, Ipomoea hederacea; test: Postemergence herbicidal evaluation, IPOHE; type: in vivo, (L.) Jacq.; conditions: 0.0630 kg/ha
How it was run: as §2

[11] = tested on: Lambsquarters, Common, Chenopodium album; test: Postemergence herbicidal evaluation, CHEAL; type: in vivo, L.
How it was run: as §2

[12] = tested on: ECHORC Watergrass (Calif.); test: Postemergence weed control, flooded paddy (Table IV); type: in vivo, Echinochloa oryzoides; set-up: scale not given here
How it was run: as §3

[13] = tested on: Velvetleaf, Abutilon theophrasti; test: Postemergence herbicidal evaluation, ABUTH; type: in vivo, Medic.
How it was run: as §2

[14] = tested on: CYPIR Rice Flatsedge; test: Postemergence weed control, flooded paddy (Table IV); type: in vivo, Cyperus iria; set-up: scale not given here
How it was run: as §3

[15] = tested on: Foxtail, Green, Setaria viridis; test: Preemergence herbicidal evaluation, SETVI; type: in vivo, (L.) Beau; conditions: 0.2500 kg/ha
How it was run: as §1

[16] = tested on: ORYSAT Rice, Tebonnet; test: Tolerance of transplanted rice to post-transplant application (Table III); type: in vivo, Oryza sativa; set-up: scale not given here; conditions: crop tolerance
Experimental: The tolerance of transplanted rice to post-transplanted herbicide applications is determined as follows: two ten-day-old rice seedlings (cv. Tebonnet) are transplanted into silt loam soil in 32 oz. plastic containers with a diameter of 10.5 cm and no drainage holes. After transplanting, the containers are flooded and the water level is maintained at 1.5 to 3 cm above the soil surface. Three days after transplanting, the flooded soil surface of the containers is treated with the selected aqueous/acetone 50/50 v/v mixture containing the test compounds to provide the equivalent of about 0.0313 to 0.500 kg/ha of active ingredient. The treated containers are placed on greenhouse benches, watered such that the water level is maintained as stated above, and cared for in accordance with conventional greenhouse procedures. Three to four weeks after treatment, the test is terminated and each container is examined and herbicidal effect rated according to the rating system provided in Example 185. The compounds evaluated are reported by compound number given in Example 185.

## COc1ccc(C)cc1-c1nsc2ccc(-n3c(=O)cc(C(F)(F)F)n(C)c3=O)cc12 [Compound 1, 3-[3-(6-Methoxy-m-tolyl)-1,2-benzisothiazol-5-yl]-1-methyl-6-(trifluoromethyl)-2,4(1H,3H)-pyrimidinedione]
[1]; 0.0313 kg/ha
  herbicidal effect rating: 1.3
[1]; 0.0625 kg/ha
  herbicidal effect rating: 3.0
[1]; 0.1250 kg/ha
  herbicidal effect rating: 6.0
[1]; 0.2500 kg/ha
  herbicidal effect rating: 9.0
[1]; 0.5000 kg/ha
  herbicidal effect rating: 8.0
[2]
  herbicide rating (0-9): 9.0
[3]
  herbicide rating (0-9): 9.0
[4]; 0.0630 kg/ha
  herbicide rating (0-9): 4.3
[4]; 0.2500 kg/ha
  herbicide rating (0-9): 5.0
[5]
  herbicide rating (0-9): 9.0
[6]
  herbicide rating (0-9): 6.0
[7]
  herbicide rating (0-9): 9.0
[8]; 0.1250 kg/ha
  herbicidal effect rating: 3.0
[8]; 0.2500 kg/ha
  herbicidal effect rating: 5.5
[8]; 0.5000 kg/ha
  herbicidal effect rating: 6.5
[9]; 0.0630 kg/ha
  herbicide rating (0-9): 6.0
[9]; 0.2500 kg/ha
  herbicide rating (0-9): 7.0
[10]
  herbicide rating (0-9): 9.0
[11]; 0.0630 kg/ha
  herbicide rating (0-9): 9.0
[11]; 0.2500 kg/ha
  herbicide rating (0-9): 9.0
[12]; 0.1250 kg/ha
  herbicidal effect rating: 6.5
[12]; 0.2500 kg/ha
  herbicidal effect rating: 8.0
[12]; 0.5000 kg/ha
  herbicidal effect rating: 9.0
[13]; 0.0630 kg/ha
  herbicide rating (0-9): 9.0
[13]; 0.2500 kg/ha
  herbicide rating (0-9): 9.0
[14]; 0.1250 kg/ha
  herbicidal effect rating: 9.0
[14]; 0.2500 kg/ha
  herbicidal effect rating: 9.0
[14]; 0.5000 kg/ha
  herbicidal effect rating: 9.0
[15]
  herbicide rating (0-9): 9.0
[16]; 0.0313 kg/ha
  herbicidal effect rating: 4.7
[16]; 0.0625 kg/ha
  herbicidal effect rating: 4.7
[16]; 0.1250 kg/ha
  herbicidal effect rating: 5.3
[16]; 0.2500 kg/ha
  herbicidal effect rating: 7.7
[16]; 0.5000 kg/ha
  herbicidal effect rating: 7.0

## COc1cc(C)ccc1-c1nsc2ccc(-n3c(=O)cc(C(F)(F)F)n(C)c3=O)cc12 [Compound 7, 3-[3-(2-Methoxy-p-tolyl)-1,2-benzisothiazol-5-yl]-1-methyl-6-(trifluoromethyl)-2,4(1H,3H)-pyrimidinedione]
[1]; 0.0313 kg/ha
  herbicidal effect rating: 7.0
[1]; 0.0625 kg/ha
  herbicidal effect rating: 7.0
[1]; 0.1250 kg/ha
  herbicidal effect rating: 8.0
[1]; 0.2500 kg/ha
  herbicidal effect rating: 7.0
[1]; 0.5000 kg/ha
  herbicidal effect rating: 9.0
[4]; 0.2500 kg/ha
  herbicide rating (0-9): 6.5
[5]
  herbicide rating (0-9): 9.0
[6]
  herbicide rating (0-9): 6.0
[8]; 0.1250 kg/ha
  herbicidal effect rating: 9.0
[8]; 0.2500 kg/ha
  herbicidal effect rating: 9.0
[8]; 0.5000 kg/ha
  herbicidal effect rating: 8.0
[9]; 0.2500 kg/ha
  herbicide rating (0-9): 9.0
[11]; 0.2500 kg/ha
  herbicide rating (0-9): 9.0
[12]; 0.1250 kg/ha
  herbicidal effect rating: 9.0
[12]; 0.2500 kg/ha
  herbicidal effect rating: 9.0
[12]; 0.5000 kg/ha
  herbicidal effect rating: 9.0
[13]; 0.2500 kg/ha
  herbicide rating (0-9): 9.0
[14]; 0.1250 kg/ha
  herbicidal effect rating: 9.0
[14]; 0.2500 kg/ha
  herbicidal effect rating: 9.0
[14]; 0.5000 kg/ha
  herbicidal effect rating: 9.0
[15]
  herbicide rating (0-9): 9.0
[16]; 0.0313 kg/ha
  herbicidal effect rating: 6.0
[16]; 0.0625 kg/ha
  herbicidal effect rating: 8.0
[16]; 0.1250 kg/ha
  herbicidal effect rating: 7.0
[16]; 0.2500 kg/ha
  herbicidal effect rating: 7.0
[16]; 0.5000 kg/ha
  herbicidal effect rating: 9.0

## COC(=O)COc1cc(C)ccc1-c1nsc2ccc(-n3c(=O)cc(C(F)(F)F)n(C)c3=O)cc12 [Compound 8, Methyl {{6-{5-[3,6-dihydro-3-methyl-4-(trifluoromethyl)-2,6-dioxo-1(2H)-pyrimidinyl]-1,2-benzisothiazol-3-yl}-m-tolyl}oxy}acetate]
[1]; 0.0313 kg/ha
  herbicidal effect rating: 4.0
[1]; 0.0625 kg/ha
  herbicidal effect rating: 9.0
[1]; 0.1250 kg/ha
  herbicidal effect rating: 9.0
[1]; 0.2500 kg/ha
  herbicidal effect rating: 9.0
[1]; 0.5000 kg/ha
  herbicidal effect rating: 9.0
[4]; 0.2500 kg/ha
  herbicide rating (0-9): 8.5
[5]
  herbicide rating (0-9): 9.0
[6]
  herbicide rating (0-9): 9.0
[8]; 0.1250 kg/ha
  herbicidal effect rating: 7.0
[8]; 0.2500 kg/ha
  herbicidal effect rating: 7.0
[8]; 0.5000 kg/ha
  herbicidal effect rating: 9.0
[9]; 0.2500 kg/ha
  herbicide rating (0-9): 9.0
[11]; 0.2500 kg/ha
  herbicide rating (0-9): 9.0
[12]; 0.1250 kg/ha
  herbicidal effect rating: 9.0
[12]; 0.2500 kg/ha
  herbicidal effect rating: 9.0
[12]; 0.5000 kg/ha
  herbicidal effect rating: 9.0
[13]; 0.2500 kg/ha
  herbicide rating (0-9): 9.0
[14]; 0.1250 kg/ha
  herbicidal effect rating: 9.0
[14]; 0.2500 kg/ha
  herbicidal effect rating: 9.0
[14]; 0.5000 kg/ha
  herbicidal effect rating: 9.0
[15]
  herbicide rating (0-9): 9.0
[16]; 0.0313 kg/ha
  herbicidal effect rating: 7.0
[16]; 0.0625 kg/ha
  herbicidal effect rating: 7.0
[16]; 0.1250 kg/ha
  herbicidal effect rating: 9.0
[16]; 0.2500 kg/ha
  herbicidal effect rating: 9.0
[16]; 0.5000 kg/ha
  herbicidal effect rating: 9.0
